The nature of series [1]: Evaluation of aqueous solubility in different aqueous buffers (HPLC quantification). The class given is physicochemical. Particulars: thermodynamic from solid, equilibrated at 25° C. for 24 hours. Here is the method: Aqueous solubility of the compounds of this invention was determined by suspending sufficient compound in different aqueous buffers to give a maximum final concentration of ≧10 mg/mL of the compound. The resulting suspension was equilibrated at 25° C. for 24 hours then the pH is measured. The suspension was then filtered through a glass fibre C filter into a 96 well plate. The filtrate was diluted by a factor of 10. Quantification was by HPLC with reference to a standard solution in DMSO. Different volumes of the standard, diluted and undiluted sample solutions were injected. The solubility was calculated using the peak areas determined by integration of the peak found at the same retention time as the principal peak in the standard injection.

The conditions of series [2]: as reported on FDA approved label, cited from earlier work.
Setting [3] is: Buffer: FaSSIF (fasted state simulated intestinal fluid), final pH 6.61 (103), 6.58 (101).

In brackets after ≈: the same amount, converted by molar mass. Like-named read-outs stand apart in the source and are kept apart here.

What is called solubility is how much of the substance goes into solution per volume. A word on the Solubility: it is the dissolved amount per volume that the medium holds.

Consider `CS(=O)(=O)CCN(Cc1ccc(-c2ccc3ncnc(Nc4ccc(OCc5cccc(F)c5)c(Cl)c4)c3c2)o1)C(=O)OCOP(=O)(O)O` [Compound 101, Phosphonooxymethyl (5-(4-(3-chloro-4-(3-fluorobenzyloxy)phenylamino)quinazolin-6-yl)furan-2-yl)methyl(2-(methylsulfonyl)ethyl)carbamate], for which the solubility at 24 h in series [1] (setting [3]) is 25 µg/mL (≈ 34 µM).

`CS(=O)(=O)CCN(Cc1ccc(-c2ccc3ncnc(Nc4ccc(OCc5cccc(F)c5)c(Cl)c4)c3c2)o1)C(=O)OCOP(=O)([O-])[O-].[Na+].[Na+]` [Compound 103, Sodium (((5-(4-(3-Chloro-4-(3-fluorobenzyloxy)phenylamino)quinazolin-6-yl)furan-2-yl)methyl)(2-(methylsulfonyl)ethyl)carbamoyloxy)methyl phosphate]: the solubility at 24 h in series [1] (aqueous buffer, Buffer: Phosphate pH 6.3, final pH 6.45) is 170 µg/mL; in series [1] (aqueous buffer, Buffer: Phosphate pH 6.8, final pH 7.03) it was 520 µg/mL; in series [1] (aqueous buffer, Buffer: Phosphate pH 7.3, final pH 7.41) it was 4600 µg/mL; in series [1] (setting [3]), 9100 µg/mL.

Take `CS(=O)(=O)CCNCc1ccc(-c2ccc3ncnc(Nc4ccc(OCc5cccc(F)c5)c(Cl)c4)c3c2)o1.Cc1ccc(S(=O)(=O)O)cc1.Cc1ccc(S(=O)(=O)O)cc1.O` [Lapatinib ditosylate, N-[3-Chloro-4-(3-fluorobenzyloxy)phenyl]-6-[5-[2-(methylsulfonyl)ethylaminomethyl]furan-2-yl]quinazolin-4-amine bis(4-methylbenzenesulfonate) hydrate]: the “Solubility” value in series [2] (0.1N HCl) is 1 µg/mL; in series [2] (Water), 7 µg/mL.

Source of the values: US20110300132A1, “4-AMINOQUINAZOLINE PRODRUGS” (Concert Pharmaceuticals, Inc., priority 2008, published 2011).
